Measured values taken from patent US8835377B2, “Oral delivery of peptide pharmaceutical compositions” (UGP Therapeutics, Inc., priority 2004, dated 2014).

Test: Pharmacokinetics after oral capsules (sCT plus Dmt-DALDA with citric acid and lauroyl carnitine), non-enteric coated or enteric coated, in fasted beagle dogs (plasma; ELISA for sCT, HPLC-MS for Dmt-DALDA)
Type: in vivo
Protocol: A second series of tests was carried out, as noted above, using beagle dogs. […] In the experiments represented in FIGS. 2A and 2B, size 00 […] capsules were each filled with 758 mg of a powdered blend consisting of citric acid (643 mg), lauroyl carnitine (66 mg), talc (33 mg), salmon calcitonin (sCT) (13 mg) and Dmt-DALDA (2.4 mg). Half of the capsules were coated with an enteric coating solution of L30D-55, while the remaining 50% of the capsules were not coated. Four fasted dogs were each given 1 uncoated capsule, and 2 weeks later they were each given an enteric coated capsule. After administration of each capsule, samples of blood were taken at 15 minute intervals from an indwelling catheter for up to 4 hours. The blood samples were centrifuged and the resulting plasma supernatants were stored frozen at −20° C. The plasma samples were subsequently analyzed for sCT by a direct ELISA, and for Dmt-DALDA by HPLC-mass spectrometry performed as set forth in Wan, H. and Desiderio, D., Quantitation of [DMT^1] DALDA in ovine plasma by on-line liquid chromatography/quadrapole time-of-flight mass spectrometry, Rapid Communications in Mass Spectrometry, 2003; 17, 538-546, the contents of which are incorporated herein by reference.
The results summarized in FIGS. 2A and 2B as plasma peptide concentration normalized to a 1 mg dose as a function of time relative to the average Tmax, (i.e., the time at which the maximum amount of peptide was detected) indicate that both peptides, i.e., sCT and Dmt-DALDA, were detected in dogs given uncoated or enteric coated capsules. […] Table DI (below) sets forth the values upon which the curves in FIGS. 2A and 2B are based. The results are summarized in the tables as plasma peptide concentration normalized to a 1 mg dose as a function of time. Table III, moreover, provides the standard deviations for the data obtained regarding each of the test dogs, which standard deviations are also indicated in FIGS. 2A and 2B.
Table IV (below) summarizes the pharmacokinetic parameters in dogs of orally administered sCT and Dmt-DALDA when administered in non-enteric coated versus enteric coated capsules. Peptide was not detected from 1 dog in each group due to (a) Dog 3 vomiting the uncoated capsule and (b) delayed gastric emptying in Dog 2 provided with an enteric coated capsule. Cmax and AUC are as defined with regard to Table H above.

Cc1cc(O)cc(C)c1C[C@H](N)C(=O)N[C@H](CCCNC(=N)N)C(=O)N[C@@H](Cc1ccccc1)C(=O)N[C@@H](CCCCN)C(N)=O [Dmt-DALDA, H-2,6-dimethyltyrosine-D-Arginine-Phenylalanine-Lysine-NH2]
plasma peptide concentration normalized to a 1 mg dose (enteric coated capsule, Dog 3, 45 min): 0 pg/mL
plasma peptide concentration normalized to a 1 mg dose (enteric coated capsule, Dog 3, 60 min): 0 pg/mL
plasma peptide concentration normalized to a 1 mg dose (enteric coated capsule, Dog 3, 75 min): 0 pg/mL
plasma peptide concentration normalized to a 1 mg dose (enteric coated capsule, Dog 3, 90 min): 0 pg/mL
plasma peptide concentration normalized to a 1 mg dose (enteric coated capsule, Dog 3, 105 min): 0 pg/mL
plasma peptide concentration normalized to a 1 mg dose (enteric coated capsule, Dog 3, 120 min): 0 pg/mL
plasma peptide concentration normalized to a 1 mg dose (enteric coated capsule, Dog 3, 135 min): 21494 pg/mL
plasma peptide concentration normalized to a 1 mg dose (enteric coated capsule, Dog 3, 150 min): 19378 pg/mL
plasma peptide concentration normalized to a 1 mg dose (enteric coated capsule, Dog 3, 165 min): 12697 pg/mL
plasma peptide concentration normalized to a 1 mg dose (enteric coated capsule, Dog 3, 180 min): 9100 pg/mL
plasma peptide concentration normalized to a 1 mg dose (enteric coated capsule, Dog 3, 195 min): 4876 pg/mL
plasma peptide concentration normalized to a 1 mg dose (enteric coated capsule, Dog 4, 0 min): 0 pg/mL
plasma peptide concentration normalized to a 1 mg dose (enteric coated capsule, Dog 4, 15 min): 0 pg/mL
plasma peptide concentration normalized to a 1 mg dose (enteric coated capsule, Dog 4, 30 min): 0 pg/mL
plasma peptide concentration normalized to a 1 mg dose (enteric coated capsule, Dog 4, 45 min): 0 pg/mL
plasma peptide concentration normalized to a 1 mg dose (enteric coated capsule, Dog 4, 60 min): 0 pg/mL
plasma peptide concentration normalized to a 1 mg dose (enteric coated capsule, Dog 4, 75 min): 0 pg/mL
plasma peptide concentration normalized to a 1 mg dose (enteric coated capsule, Dog 4, 90 min): 0 pg/mL
plasma peptide concentration normalized to a 1 mg dose (enteric coated capsule, Dog 4, 105 min): 4577 pg/mL
plasma peptide concentration normalized to a 1 mg dose (enteric coated capsule, Dog 4, 120 min): 12116 pg/mL
plasma peptide concentration normalized to a 1 mg dose (enteric coated capsule, Dog 4, 135 min): 10207 pg/mL
plasma peptide concentration normalized to a 1 mg dose (enteric coated capsule, Dog 4, 150 min): 6307 pg/mL
plasma peptide concentration normalized to a 1 mg dose (enteric coated capsule, Dog 4, 165 min): 5158 pg/mL
plasma peptide concentration normalized to a 1 mg dose (enteric coated capsule, Dog 4, 180 min): 3884 pg/mL
plasma peptide concentration normalized to a 1 mg dose (enteric coated capsule, Dog 4, 195 min): 2896 pg/mL
plasma peptide concentration normalized to a 1 mg dose (non-enteric coated capsule, Dog 1, 45 min): 5104 pg/mL
plasma peptide concentration normalized to a 1 mg dose (non-enteric coated capsule, Dog 1, 60 min): 4066 pg/mL
plasma peptide concentration normalized to a 1 mg dose (non-enteric coated capsule, Dog 1, 75 min): 2407 pg/mL
plasma peptide concentration normalized to a 1 mg dose (non-enteric coated capsule, Dog 1, 90 min): 2780 pg/mL
plasma peptide concentration normalized to a 1 mg dose (non-enteric coated capsule, Dog 1, 105 min): 1938 pg/mL
plasma peptide concentration normalized to a 1 mg dose (non-enteric coated capsule, Dog 1, 120 min): 1627 pg/mL
plasma peptide concentration normalized to a 1 mg dose (non-enteric coated capsule, Dog 1, 135 min): 1158 pg/mL
plasma peptide concentration normalized to a 1 mg dose (non-enteric coated capsule, Dog 1, 150 min): 830 pg/mL
plasma peptide concentration normalized to a 1 mg dose (non-enteric coated capsule, Dog 1, 165 min): 913 pg/mL
plasma peptide concentration normalized to a 1 mg dose (non-enteric coated capsule, Dog 1, 180 min): 705 pg/mL
plasma peptide concentration normalized to a 1 mg dose (non-enteric coated capsule, Dog 1, 195 min): 581 pg/mL
plasma peptide concentration normalized to a 1 mg dose (non-enteric coated capsule, Dog 1, 210 min): 544 pg/mL
plasma peptide concentration normalized to a 1 mg dose (non-enteric coated capsule, Dog 1, 225 min): 436 pg/mL
plasma peptide concentration normalized to a 1 mg dose (non-enteric coated capsule, Dog 1, 240 min): 402 pg/mL
plasma peptide concentration normalized to a 1 mg dose (non-enteric coated capsule, Dog 2, 45 min): 5602 pg/mL
plasma peptide concentration normalized to a 1 mg dose (non-enteric coated capsule, Dog 2, 60 min): 5726 pg/mL
plasma peptide concentration normalized to a 1 mg dose (non-enteric coated capsule, Dog 2, 75 min): 4523 pg/mL
plasma peptide concentration normalized to a 1 mg dose (non-enteric coated capsule, Dog 2, 90 min): 3568 pg/mL
plasma peptide concentration normalized to a 1 mg dose (non-enteric coated capsule, Dog 2, 105 min): 3444 pg/mL
plasma peptide concentration normalized to a 1 mg dose (non-enteric coated capsule, Dog 2, 120 min): 2614 pg/mL
plasma peptide concentration normalized to a 1 mg dose (non-enteric coated capsule, Dog 2, 135 min): 2697 pg/mL
plasma peptide concentration normalized to a 1 mg dose (non-enteric coated capsule, Dog 2, 150 min): 2407 pg/mL
plasma peptide concentration normalized to a 1 mg dose (non-enteric coated capsule, Dog 2, 165 min): 2531 pg/mL
plasma peptide concentration normalized to a 1 mg dose (non-enteric coated capsule, Dog 2, 180 min): 2075 pg/mL
plasma peptide concentration normalized to a 1 mg dose (non-enteric coated capsule, Dog 2, 195 min): 1328 pg/mL
plasma peptide concentration normalized to a 1 mg dose (non-enteric coated capsule, Dog 2, 210 min): 1867 pg/mL
plasma peptide concentration normalized to a 1 mg dose (non-enteric coated capsule, Dog 2, 225 min): 1535 pg/mL
plasma peptide concentration normalized to a 1 mg dose (non-enteric coated capsule, Dog 2, 240 min): 1494 pg/mL
plasma peptide concentration normalized to a 1 mg dose (non-enteric coated capsule, Dog 4, 45 min): 5788 pg/mL
plasma peptide concentration normalized to a 1 mg dose (non-enteric coated capsule, Dog 4, 60 min): 4481 pg/mL
plasma peptide concentration normalized to a 1 mg dose (non-enteric coated capsule, Dog 4, 75 min): 2934 pg/mL
plasma peptide concentration normalized to a 1 mg dose (non-enteric coated capsule, Dog 4, 90 min): 2382 pg/mL
plasma peptide concentration normalized to a 1 mg dose (non-enteric coated capsule, Dog 4, 105 min): 3054 pg/mL
plasma peptide concentration normalized to a 1 mg dose (non-enteric coated capsule, Dog 4, 120 min): 1759 pg/mL
plasma peptide concentration normalized to a 1 mg dose (non-enteric coated capsule, Dog 4, 135 min): 1627 pg/mL
plasma peptide concentration normalized to a 1 mg dose (non-enteric coated capsule, Dog 4, 150 min): 1544 pg/mL
plasma peptide concentration normalized to a 1 mg dose (non-enteric coated capsule, Dog 4, 165 min): 1324 pg/mL
plasma peptide concentration normalized to a 1 mg dose (non-enteric coated capsule, Dog 4, 180 min): 1191 pg/mL
plasma peptide concentration normalized to a 1 mg dose (non-enteric coated capsule, Dog 4, 195 min): 851 pg/mL
plasma peptide concentration normalized to a 1 mg dose (non-enteric coated capsule, Dog 4, 210 min): 722 pg/mL
plasma peptide concentration normalized to a 1 mg dose (non-enteric coated capsule, Dog 4, 225 min): 672 pg/mL
plasma peptide concentration normalized to a 1 mg dose (non-enteric coated capsule, Dog 4, 240 min): 556 pg/mL
